Measurements reported in ChEMBL document CHEMBL1141028, “Novel NGF-potentiating diterpenoids from a Brazilian medicinal plant, Ptychopetalum olacoides” (Bioorg Med Chem Lett, 2009).
Calls of active or inactive are those of the source. The calls are words filed in the database; no cut-off is given here.

How the values were obtained:
[1] = system: PC-12; experiment: Enhancement of neurite length extending from cell bodies in NGF-mediated rat PC12 cells at 0.1 to 50 uM after 4 days; format: functional, cell-based
[2] = system: PC-12; experiment: Enhancement of NGF-induced neurite outgrowth in rat PC12 cells assessed as morphological changes at 0.1 to 50 uM after 4 days by phase-contrast microscopy; format: functional, cell-based
[3] = system: PC-12; experiment: Enhancement of neurite outgrowth in rat PC12 cells assessed as morphological changes after 4 days by phase-contrast microscopy in absence of NGF; format: functional, cell-based
[4] = system: PC-12; experiment: Cytotoxicity against rat PC12 cells at 50 uM; format: cell-based; details: pc-12, 50 µM
[5] = system: PC-12; experiment: Enhancement of neurite length extending from cell bodies in NGF-mediated rat PC12 cells at 1 uM after 4 days; format: functional
[6] = system: PC-12; experiment: Enhancement of neurite length extending from cell bodies in NGF-mediated rat PC12 cells at 30 uM after 4 days; format: functional
[7] = system: PC-12; experiment: Enhancement of neurite length extending from cell bodies in NGF-mediated rat PC12 cells at 0.1 uM after 4 days; format: functional
[8] = system: PC-12; experiment: Enhancement of NGF-induced neurite outgrowth in rat PC12 cells assessed as morphological changes after 4 days by phase-contrast microscopy; format: functional, cell-based
[9] = system: PC-12; experiment: Enhancement of neurite length extending from cell bodies in NGF-mediated rat PC12 cells at 10 uM after 4 days; format: functional
[10] = system: PC-12; experiment: Enhancement of neurite length extending from cell bodies in NGF-mediated rat PC12 cells after 4 days relative to control; format: functional, cell-based
[11] = system: PC-12; experiment: Enhancement of neurite length extending from cell bodies in NGF-mediated rat PC12 cells at 50 uM after 4 days; format: functional

SMILES | Activity [1] | Activity [2] | Activity [3] | Activity [4] | Activity [5] [um] | Activity [6] [um] | Activity [7] [um] | Activity [8] | Activity [9] [um] | Activity [10] | Activity [11] [um]
CC1=CCC[C@@H]2[C@@](C)(CCC3=CC(=O)OC3)[C@H](C)[C@H](O)C[C@@]12C | inactive | inactive | inactive |  |  |  |  |  |  |  | 
COC1C=C(CC[C@@]2(C)[C@H](C)[C@H](O)[C@H](O)[C@@]3(C)C(C)=CCC[C@H]23)C(=O)O1 (some centres not stated) | inactive | inactive | inactive |  |  |  |  |  |  |  | 
CC1=CCC[C@@H]2[C@@](CO)(CCc3ccoc3)[C@H](C)[C@H](O)C[C@@]12C |  |  | inactive | Toxic | 101.7 | 236.3 | 95.3 | Dose-dependent effect | 106.5 |  | 
CC1=CCC[C@@H]2[C@@](C)(CCc3ccoc3)[C@H](C)[C@@H]3OC(C)(C)O[C@@H]3[C@@]12C | inactive |  |  |  |  |  |  |  |  |  | 
CC1=CCC[C@@H]2[C@@](C)(CCc3ccoc3)[C@H](C)[C@H](O)[C@H](O)[C@@]12C |  |  | inactive |  | 115.8 | 201.5 | 104 | Dose-dependent effect | 173.1 | Dose-dependent effect | 205.3
